According to article PMC3202988 (Nature chemical biology, 2011):

Target: T1, OGA (O-GlcNAcase) (Homo sapiens, UniProt O60502)
T1 sequence (O60502 1-916): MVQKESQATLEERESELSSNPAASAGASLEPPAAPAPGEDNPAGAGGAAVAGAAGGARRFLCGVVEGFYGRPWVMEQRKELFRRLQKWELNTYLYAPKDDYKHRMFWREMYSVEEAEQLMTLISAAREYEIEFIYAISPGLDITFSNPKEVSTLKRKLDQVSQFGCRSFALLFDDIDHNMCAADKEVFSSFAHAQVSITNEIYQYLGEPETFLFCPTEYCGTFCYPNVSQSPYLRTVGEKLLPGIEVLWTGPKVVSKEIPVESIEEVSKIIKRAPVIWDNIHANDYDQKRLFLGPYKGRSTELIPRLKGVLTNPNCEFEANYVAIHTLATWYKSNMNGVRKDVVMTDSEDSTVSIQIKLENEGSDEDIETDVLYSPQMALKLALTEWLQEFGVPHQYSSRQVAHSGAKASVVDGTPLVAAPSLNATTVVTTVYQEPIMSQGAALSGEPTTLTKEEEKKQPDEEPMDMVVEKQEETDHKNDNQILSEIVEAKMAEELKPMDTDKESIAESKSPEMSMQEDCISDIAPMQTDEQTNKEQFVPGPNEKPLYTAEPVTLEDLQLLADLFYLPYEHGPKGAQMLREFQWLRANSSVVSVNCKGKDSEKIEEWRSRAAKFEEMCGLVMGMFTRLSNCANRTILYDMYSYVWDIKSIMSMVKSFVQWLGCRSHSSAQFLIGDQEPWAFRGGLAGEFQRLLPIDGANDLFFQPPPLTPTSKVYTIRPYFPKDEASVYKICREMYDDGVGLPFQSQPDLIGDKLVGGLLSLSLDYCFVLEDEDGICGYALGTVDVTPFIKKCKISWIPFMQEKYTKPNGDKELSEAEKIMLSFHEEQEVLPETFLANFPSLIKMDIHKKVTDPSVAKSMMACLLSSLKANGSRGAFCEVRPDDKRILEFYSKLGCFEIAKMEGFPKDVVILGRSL
Assay: Michaelis-Menten hydrolysis kinetics, absorbance at […] nm
Assay type: biochemical

| Michaelis-Menten hydrolysis kinetics, absorbance at 296 nm | Structure (SMILES) |
| --- | --- |
| 8.1 μmol s^−1 mg^−1 M^−1 | COc1ccc(O[C@@H]2S[C@H](CO)[C@@H](O)[C@H](O)[C@H]2NC(C)=O)cc1 [compound 7, para-methoxyphenyl 2-acetamido-2-deoxy-5-thio-β-D-glucopyranoside] |
| 40.7 μmol s^−1 mg^−1 M^−1 | COc1ccc(O[C@@H]2O[C@H](CO)[C@@H](O)[C@H](O)[C@H]2NC(C)=O)cc1 [compound 6, para-methoxyphenyl 2-acetamido-2-deoxy-β-D-glucopyranoside] |
